Test results as given in US20180037903A1, “METHODS AND MEANS FOR INCREASING STRESS TOLERANCE AND BIOMASS IN PLANTS” (THE UNIVERSITY COURT OF THE UNIVERSITY OF GLASGOW, priority 2013, published 2018).

B1: nYFP-HDC1 (N-terminal half of YFP fused to full length A. thaliana HISTONE DEACETYLASE COMPLEX 1) (other)
chain: MSGVPKRSHEEGVTHPSSSSSVAKYPHEDSGSYPKSPHQPVTPPPAQVHHNHQQPHQHPQSQSQSQPQPHLQALPHPHSHSHSHSPLAAAASASAPYEVESRTVVKVARSEPRDGERRSPLPLVYRSPSLPTTVSSSDPHLTHAPVPMEPRDGAKDGREIRVESRENRSDGREIYGETKREIQGPKGDRDVKFERSVDDFSGKGNTGSYTRNDGREMYGETKREIQGPKSDRDAKFERPGDDFSGKSNAGSYTRDTKFDRENQNYNEQKGEIKMEKEGHAHLAWKEQKDYHRGKRVAEGSTANVDPWVVSRGNPQGPTEVGPKDLSAPVEGSHLEGRETVGENKVDAKNEDRFKEKDKKRKELKHREWGDRDKDRNDRRVSVLVGSVMSEPKEIGREERESDRWERERMEQKDRERNKEKDKDHIKREPRTGAEKEISQNEKELGEASAKPSEQEYVAPEQKKQNEPDNCEKDERETKEKRRERDGDSEAERAEKRSRISEKESEDGCLEGEGATEREKDAFNYGVQQRKRALRPRGSPQTTNRDNVRSRSQDNEGVQGKSEVSIVVYKVGECMQELIKLWKEYDLSHPDKSGDFANNGPTLEVRIPAEHVTATNRQVRGGQLWGTDIYTDDSDLVAVLMHTGYCRPTASPPPPTMQELRTTIRVLPSQDYYTSKLRNNVRSRAWGAGIGCSYRVERCYILKKGGGTIELEPSLTHSSTVEPTLAPMAVERSMTTRAAASNALRQQRFVREVTIQYNLCNEPWIKYSISIVADKGLKKPLFTSARLKKGEVLYLETHSCRYELCFAGEKTIKAIQASQQQSSHEAMETDNNNNKSQNHLTNGDKTDSDNSLIDVFRWSRCKKPLPQKLMRSIGFPLPADHIEVLEENLDWEDVQWSQTGVWIAGKEYTLARVHFLSPN
notes: Expressed transiently in tobacco leaf cells from a 2-in-1 BiFC vector together with the cYFP partner and a full-length RFP; not shown: N-terminal half of YFP (nYFP) from vector pBiFCt-2in1-NN
B2: cYFP-HDA19 (C-terminal half of YFP fused to A. thaliana HISTONE DEACETYLASE 19) (enzyme, Arabidopsis thaliana, UniProt O22446 1-501, looked up)
chain: MDTGGNSLASGPDGVKRKVCYFYDPEVGNYYYGQGHPMKPHRIRMTHALLAHYGLLQHMQVLKPFPARDRDLCRFHADDYVSFLRSITPETQQDQIRQLKRFNVGEDCPVFDGLYSFCQTYAGGSVGGSVKLNHGLCDIAINWAGGLHHAKKCEASGFCYVNDIVLAILELLKQHERVLYVDIDIHHGDGVEEAFYATDRVMTVSFHKFGDYFPGTGHIQDIGYGSGKYYSLNVPLDDGIDDESYHLLFKPIMGKVMEIFRPGAVVLQCGADSLSGDRLGCFNLSIKGHAECVKFMRSFNVPLLLLGGGGYTIRNVARCWCYETGVALGVEVEDKMPEHEYYEYFGPDYTLHVAPSNMENKNSRQMLEEIRNDLLHNLSKLQHAPSVPFQERPPDTETPEVDEDQEDGDKRWDPDSDMDVDDDRKPIPSRVKREAVEPDTKDKDGLKGIMERGKGCEVEVDESGSTKVTGVNPVGVEEASVKMEEEGTNKGGAEQAFPPKT
notes: expressed transiently in tobacco leaf cells; not shown: C-terminal half of YFP (cYFP) from vector pBiFCt-2in1-NN

Key:
A. thaliana seeds = test: Germination assay on agar plates (seedlings with green cotyledons on day 6 after sowing); format: in vivo, Arabidopsis thaliana; conditions: for cumulative germination rate: increasing concentrations in agar, all lines (wildtype, hdc1-1, HDC1-OX), scored after 6 days
Procedure: (§1) All experiments were carried out in controlled growth rooms at a temperature of 20-22° C. and a light intensity of 120-150 μmol PAR. Plants were grown either in long days (16 h light) or in short days (10 h light) as indicated in text and figure legends. Seeds of A. thaliana wildtype and transgenic lines were sterilized, stratified and germinated on soil or on agar plates. Agar plates contained half strength Murashige & Skoog (MS) media with 1% sucrose and 0.8% agar at pH 5.7. For germination assays media were supplemented with NaCl, ABA (cat. A1049,SIGMA), PAC (Fluka cat. 46046) or TSA (SIGMA cat.T8852) at the concentrations given in the figures. Germination rate was scored on day 6 after sowing by counting seedlings that had developed green cotyledons. Experiments with adult plants were carried out on soil or in hydroponic culture. For the latter, seeds were germinated on agar plates and 2-3 weeks old seedlings were placed perforated lids of black 1-litre plastic containers. The growth medium consisted in a minimal sufficient nutrient medium (Kellermeier et al., 2013, PLoS Genet. 7). For salt treatment NaCl powder was stirred directly into the growth container to obtain the desired concentration (as stated in the figures). Control media were stirred without adding NaCl. For controlled drought experiments, plants were grown on soil in pots according to a randomized design. Using previously reported methodology (Granier et al., 2006, New Phytologist 169:623-635; Skirycz et al., 2011, Nat. Biotech. 29:212-214), controlled watering was used to impose moderate water stress. After 14 days of plant growth in well-watered soil, watering was reduced so that the relative soil water content of the stressed plants was maintained at 50% of the normal watering regime. Control plants were watered normally.
Germinating seeds arrest growth and development if they encounter low water potentials in the environment (Finkelstein et al., 2008, In Annual Review of Plant Biology (Palo Alto: Annual Reviews), pp. 387-415). The post-imbibition response is mediated by ABA and can be mimicked by external application of ABA. […] To test a function of HDC1 in this process seeds of A. thaliana wildtype, hdc1-1, and HDC1-0X lines were imbibed to break dormancy, and subsequently plated out on agar plates containing different concentrations of NaCl, mannitol, ABA or PAC. A cumulative germination rate (encompassing all post-imbibition stages of seedling development) was scored as the number of seedlings that had developed cotyledons after 6 days.
To test whether histone deactylation was required for ABA-dependence of seed germination and for the effect of HDC1 on this process, we subjected germinating seeds to the histone deacetylase inhibitor trichostatin A (TSA).

A. thaliana plants = test system: A. thaliana plants
Procedure: as §1

[1] = molecular target: T1, cYFP-HDA6 (C-terminal half of YFP fused to A. thaliana HISTONE DEACETYLASE 6) (Arabidopsis thaliana, UniProt Q9FML2 1-471); test: ratiometric BiFC in tobacco leaf cells (nYFP-HDC1 with cYFP-HDA6)
T1 construct: expressed transiently in tobacco leaf cells; not shown: C-terminal half of YFP (cYFP) from vector pBiFCt-2in1-NN
T1 sequence (looked up): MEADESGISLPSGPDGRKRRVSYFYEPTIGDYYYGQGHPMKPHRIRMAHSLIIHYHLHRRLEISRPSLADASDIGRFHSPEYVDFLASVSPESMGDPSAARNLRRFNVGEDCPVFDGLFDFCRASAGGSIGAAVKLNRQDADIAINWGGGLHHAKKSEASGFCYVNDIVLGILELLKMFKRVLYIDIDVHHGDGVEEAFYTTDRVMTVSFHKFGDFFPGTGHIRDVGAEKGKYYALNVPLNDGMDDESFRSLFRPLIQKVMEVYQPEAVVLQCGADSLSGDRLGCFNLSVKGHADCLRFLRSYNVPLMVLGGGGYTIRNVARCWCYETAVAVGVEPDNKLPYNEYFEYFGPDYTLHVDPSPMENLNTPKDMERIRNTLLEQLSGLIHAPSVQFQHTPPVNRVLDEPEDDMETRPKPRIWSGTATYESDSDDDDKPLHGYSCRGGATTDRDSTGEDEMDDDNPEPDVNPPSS
Procedure: (§2) Fluorescence in tobacco epidermal cells was assessed two days post infiltration using a CLSM-510-META-UV confocal microscope (Zeiss, Jena). For single protein localization GFP fluorescence was excited at 488 nm with light from an Argon laser and collected after passage through an NFT545 dichroic mirror with a 505 nm long pass filter. For co-localization experiments GFP fluorescence was collected with a 505-530 band pass filter. RFP fluorescence was excited at 543 nm with light from a Helium Neon laser and was collected after passage through an NFT545 dichroic mirror and a 560-615 nm band pass filter. YFP fluorescence was excited at 514 nm with light from Argon laser and was collected using lambda mode between 520-550 nm. Co-localization plane and line scans were evaluated using Zeiss LSM 510 AIM software (v3.2).
(§3) To investigate whether HDC1 is a member of HDAC protein complexes in plants we tested co-localization and direct interaction of HDC1 with known HDACs of A. thaliana. […] Direct interaction was investigated by bimolecular fluorescence complementation (BiFC). To avoid misinterpretation of background fluorescence we used a new ratiometric BiFC assay (Grefen and Blatt, 2012, supra) in which N- and C-terminal halves of yellow fluorescent protein (YFP), fused to HDC1 and HDA6/19 respectively, and a full-length RFP, are expressed from a single vector FIG. 4A). […]

[2] = molecular target: T2, cYFP-SIN3 (C-terminal half of YFP fused to A. thaliana Sin3-like protein 3) (Arabidopsis thaliana, UniProt O48686 1-1330); test: ratiometric BiFC in tobacco leaf cells (nYFP-HDC1 with cYFP-SIN3)
T2 construct: negative control partner for nYFP-HDC1; also called AtSin3; SNL3; not shown: C-terminal half of YFP (cYFP) from vector pBiFCt-2in1-NN
T2 sequence (O48686 whole entry, the tested form may be a part): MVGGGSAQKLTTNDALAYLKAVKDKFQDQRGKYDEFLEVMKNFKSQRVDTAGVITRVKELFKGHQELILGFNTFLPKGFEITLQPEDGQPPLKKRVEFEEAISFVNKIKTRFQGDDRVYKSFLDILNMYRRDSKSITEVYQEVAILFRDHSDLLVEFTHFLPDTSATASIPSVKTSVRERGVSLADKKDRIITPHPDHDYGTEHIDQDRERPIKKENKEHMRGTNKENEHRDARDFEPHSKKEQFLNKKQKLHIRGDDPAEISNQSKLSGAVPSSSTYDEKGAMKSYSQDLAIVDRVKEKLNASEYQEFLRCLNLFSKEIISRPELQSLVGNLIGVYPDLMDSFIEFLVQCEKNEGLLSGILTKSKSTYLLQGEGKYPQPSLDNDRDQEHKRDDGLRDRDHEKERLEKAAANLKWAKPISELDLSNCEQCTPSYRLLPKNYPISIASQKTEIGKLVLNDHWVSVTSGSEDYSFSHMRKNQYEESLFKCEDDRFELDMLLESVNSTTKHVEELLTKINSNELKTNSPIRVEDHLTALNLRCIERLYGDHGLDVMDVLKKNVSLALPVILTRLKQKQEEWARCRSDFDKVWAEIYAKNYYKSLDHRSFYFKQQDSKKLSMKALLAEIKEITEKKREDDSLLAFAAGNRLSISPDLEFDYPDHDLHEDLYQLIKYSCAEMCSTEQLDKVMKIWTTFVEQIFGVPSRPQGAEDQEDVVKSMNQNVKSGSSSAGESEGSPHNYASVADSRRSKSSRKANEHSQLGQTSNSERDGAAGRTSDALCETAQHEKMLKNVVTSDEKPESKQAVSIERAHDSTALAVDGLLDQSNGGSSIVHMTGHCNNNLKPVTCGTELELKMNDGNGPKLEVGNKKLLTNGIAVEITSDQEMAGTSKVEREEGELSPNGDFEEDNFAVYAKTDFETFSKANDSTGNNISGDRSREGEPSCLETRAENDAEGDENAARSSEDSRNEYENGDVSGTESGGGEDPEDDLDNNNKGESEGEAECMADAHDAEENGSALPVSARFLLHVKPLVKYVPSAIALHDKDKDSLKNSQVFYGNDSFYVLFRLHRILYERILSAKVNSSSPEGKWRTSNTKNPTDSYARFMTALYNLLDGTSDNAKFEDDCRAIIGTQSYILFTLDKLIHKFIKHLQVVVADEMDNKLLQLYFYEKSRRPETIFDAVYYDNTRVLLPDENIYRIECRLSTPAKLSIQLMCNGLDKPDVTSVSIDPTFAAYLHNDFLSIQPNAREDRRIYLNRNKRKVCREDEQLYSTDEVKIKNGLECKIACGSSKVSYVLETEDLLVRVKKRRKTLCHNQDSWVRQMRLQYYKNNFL

[3] = molecular target: B2; test: ratiometric BiFC in tobacco leaf cells (nYFP-HDC1 with cYFP-HDA19)
Procedure: as §2, §3

[4] = molecular target: T3, nYFP-SIN3 (N-terminal half of YFP fused to A. thaliana Sin3-like protein 3) (Arabidopsis thaliana, UniProt O48686 1-1330); test: ratiometric BiFC in tobacco leaf cells (nYFP-SIN3 with cYFP-HDA19)
T3 construct: positive control partner for cYFP-HDA19; also called AtSin3; SNL3; not shown: N-terminal half of YFP (nYFP) from vector pBiFCt-2in1-NN
T3 sequence (O48686 whole entry, the tested form may be a part): as above

[5] = 150 mM NaCl for 24 hours, all lines

`CC(C)(C)[C@@H](O)[C@@H](Cc1ccc(Cl)cc1)n1cncn1` (racemic) [PAC, paclobutrazol] was tested, and the cumulative germination rate (A. thaliana seeds) was “decrease in germination rates”.

`CC1=CC(=O)CC(C)(C)[C@@]1(O)/C=C/C(C)=C\C(=O)O` [ABA, Abscisic acid] was tested, and the cumulative germination rate (A. thaliana seeds) was “decrease in germination rates”.

With `[Cl-].[Na+]` [NaCl] the cumulative germination rate (A. thaliana seeds) was “decrease in germination rates”, the chlorosis or desiccation (A. thaliana plants; 80 mM NaCl, 6 days) was “did not produce severe chlorosis or desiccation” and the growth (A. thaliana plants; 80 mM NaCl, 6 days, all lines) was “slowed growth”. For the same molecule, the shoot water content (A. thaliana plants; 80 mM NaCl, after 6 days, all lines, from 92±1% without salt) was 86±1%, the “ABA biosynthesis (shoot ABA levels)” value (A. thaliana plants; [5]) was “efficiently induced” and the “transcript levels of ABA-receptor PYL4 and 'drought-repressed' gene DR4” value (A. thaliana plants; [5]) was “efficiently repressed”.

`CC(/C=C/C(=O)NO)=C\[C@@H](C)C(=O)c1ccc(N(C)C)cc1` [TSA, trichostatin A] was tested, and the “effect on ABA-sensitivity of germination” value (A. thaliana seeds; HDC1-overexpressing lines) was “increased ABA-sensitivity”, the “effect on seed germination” value (A. thaliana seeds; low-micromolar TSA (0.3 or 3 μM), in the absence of ABA) was “no effect on seed germination” and the “effect on ABA-sensitivity of germination” value (A. thaliana seeds; wildtype plants, 0.3 μM TSA at 0.2 μM ABA) was “significant effect”. The “effect on ABA-sensitivity of germination” value (A. thaliana seeds; wildtype plants, 3 μM TSA at 0.4 μM ABA) was “significant effect” and the “effect on ABA-sensitivity of germination” value (A. thaliana seeds; wildtype plants, dose-dependent) was “increased the ABA-sensitivity”.

`OC[C@@H](O)[C@@H](O)[C@H](O)[C@H](O)CO` [mannitol] was tested, and the cumulative germination rate (A. thaliana seeds) was “decrease in germination rates”.

B1: binds [1]; no binding [2]; binds [3].

B2: binds [4].
